According to the METLIN SMRT retention time set (Domingo-Almenara et al. 2019):

experiment: gradient 5% acetonitrile 3 min, to 50% in 2 min, to 85% in 15 min, held 3 min, 100 µL/min; conditions: column: Zorbax Extend-C18 2.1 x 50 mm; eluents: water / acetonitrile, 0.1% formic acid
Outline: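 Pure standards were run in mixtures of ~100 molecules by HPLC coupled to a quadrupole time-of-flight mass spectrometer. The column was a Zorbax Extend-C18 (2.1 × 50 mm, 1.8 μm) at 100 μL/min, with water and acetonitrile each containing 0.1% formic acid, in positive and negative ionization mode. Dead and dwell volumes were 40 μL and 900 μL. Retention time was taken from computationally picked adduct peaks, each manually inspected, with data collected over 3 months.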

| RP-LC retention time [s] | Compound |
| --- | --- |
| 962 | CCOc1ccc(C(=O)N2CCc3nc(-c4ccc(OC)cc4)ncc3C2)cc1 |
| 1190 | O=C(Nc1nc(-c2ccc([N+](=O)[O-])cc2)cs1)c1ccc(COc2c(F)c(F)cc(F)c2F)o1 |
| 920 | Cc1noc(C2CN(C(=O)Cc3ccccc3)CC23CCN(C)CC3)n1 (centres undefined) |
| 1010 | Cc1cc(C)cc(S(=O)(=O)N2CCC(c3nc(C(=O)N4CCCC4)c(C)o3)CC2)c1 |
| 559 | COc1cc(C2CC(=O)c3cnc(N4CCN(CCO)CC4)nc3C2)cc(OC)c1OC (centres undefined) |
| 646 | COc1ccc(-c2nc3cc(C)ccn3c2Nc2ccc3c(c2)OCO3)cc1 |
| 892 | Cc1ccc(C)c2sc(N(C)CC(=O)Nc3ccc(S(C)(=O)=O)cc3)nc12 |
| 568 | COc1cc(CN2CC(N(Cc3ccncc3)S(C)(=O)=O)C2)cc(OC)c1 |
| 1060 | COc1cc(OC)cc(-c2noc(CCn3nc(-c4ccc(Cl)cc4)ccc3=O)n2)c1 |
| 612 | COCCNC(=O)c1nc(-c2ccnc(N3CCCCC3)c2)no1 |
| 1040 | Cc1ccc(C)c(S(=O)(=O)N2CCc3c(c(-c4nnc(-c5ccc(F)cc5)o4)nn3C)C2)c1 |
| 829 | CCOC(=O)CCCn1nc(C)c2c(C)n(-c3ccccc3)nc2c1=O |
| 893 | COc1ccc(-c2nnc(COc3ccc(NC(=O)c4cncc(Br)c4)cc3)o2)cc1 |
| 1040 | Cc1cc(-c2c(C)sc(C)c2S(=O)(=O)N2CCN(c3cccc(Cl)c3)CC2)n[nH]1 |
| 643 | Cc1ccnc(NC(=O)C2CCCN(c3ncnc4c3nc3n4CCCCC3)C2)c1 (centres undefined) |
| 639 | O=C(NCc1ccccc1)C1CCN(c2cnc(N3CCCC3)nc2)CC1 |
| 789 | Cn1nc(-c2nc(-c3cccc(F)c3)no2)c2c1CCN(C(=O)C1CCCO1)C2 (centres undefined) |
| 668 | Cn1cc(CCN2CCN(S(=O)(=O)c3ccc4c(c3)CCC4)CC2)c2cccnc21 |
| 739 | CCOC(=O)c1cccc(NC(=O)CCc2c(-c3ccc(Cl)cc3)nc3ccccn23)c1 |
| 942 | Cc1nc(-c2cn(C)c3ncccc23)sc1C(=O)NCc1ccccc1Cl |
| 578 | O=C(NCCCN1CCCC1=O)C(=O)Nc1nccs1 |
| 668 | CCc1ccc(S(=O)(=O)N2CCN(CCc3cn(C)c4ncccc34)CC2)cc1 |
| 676 | COc1ccc(C)cc1NC(=O)NCCc1cn(C)c2ncccc12 |

| RP-LC retention time [s] | Compound |
| --- | --- |
| 640 | O=C(CSCc1ccccc1)Nc1cccc(-c2cn3cccnc3n2)c1 |
| 684 | CN(CC1CCOCC1)C(=O)NCc1cccc(F)c1 |
| 858 | O=C(c1ccc2c(c1)OCO2)N1CCC2(CC1)N=C(c1ccccc1)NO2 |
| 1070 | Cc1c(-c2noc(-c3ccccc3)n2)nnn1-c1ccc(F)cc1 |
| 964 | CCOc1ccccc1-c1noc(Cn2c(=O)n(-c3cccc(OC)c3)c(=O)c3sccc32)n1 |
| 644 | CCCn1c(CCNC(=O)c2ccccc2F)nc2cccnc21 |
| 756 | COCC(=O)Nc1ccc2nc(-c3ccc(Cl)cc3)cc(OCC(=O)OC)c2c1 |
| 1240 | COc1ccc(-c2noc(-c3ccc(N4CCN(c5ccc(OC)cc5)CC4)nc3)n2)cc1 |
| 1040 | CCOC(=O)c1sc2nc(NC(=O)COc3ccccc3)sc2c1C |
| 884 | COc1ccc(-c2nc3cnccn3c2Nc2ccc(Br)cc2)cc1OC |
| 981 | COc1ccc(/C=C2\N=C(c3ccccc3)OC2=O)c(OCc2ccccc2)c1 |
| 732 | CCCNC(=O)N1CCc2cc(-c3ccc(C(=O)N4CCOCC4)cc3)ccc21 |
| 648 | Cc1nn(C(C)C(=O)NCCCN2CCCC2=O)c(=O)c2nn(-c3ccccc3)c(C)c12 (centres undefined) |
| 844 | COc1cccc(CNC(=O)CN2CCN(Cc3ccc(F)cc3Cl)C2=O)c1 |
| 1160 | CC(C)(C)c1ccc(C(=O)NC2(c3nc(-c4cccnc4)no3)CCCCC2)cc1 |
| 860 | COc1cccc(OC)c1-c1cc(C(=O)NC2(C(=O)O)C3CC4CC(C3)CC2C4)nn1-c1ccc(C(=O)N(C)CCCN(C)C)cc1C(C)C (centres undefined) |
| 799 | Cc1ccc(S(=O)(=O)N2CCC(N3CCN(Cc4ccccc4)C(=O)C3=O)CC2)cc1Cl |
| 792 | O=C(c1cc2ccccc2[nH]1)N1CCN(c2cc(-c3ccccc3)[nH]n2)CC1 |
| 731 | CCOC(=O)c1nc(NCCCN2CCN(c3cc(Cl)ccc3C)CC2)c2ccccc2n1 |
| 987 | COc1cc2c3c(c1OC)-c1cc4c(cc1CC3(C#N)N(C(=O)c1ccccc1)CC2)OCO4 (centres undefined) |
| 658 | O=C(NCC(O)c1ccsc1)NC1CCCCC1 (centres undefined) |
| 833 | COCCn1cc2c3c(cccc31)CN(C(=O)Nc1ccc(OC)cc1)CC2 |
| 818 | CCCNS(=O)(=O)c1cc2c(cc1C)CCN2C(=O)CC |

| RP-LC retention time [s] | Compound |
| --- | --- |
| 750 | O=C(Cn1nc2c(c1NC(=O)c1c(F)cccc1Cl)CSC2)NCc1ccco1 |
| 636 | COC1CCC12CCN(C(=O)C1CCOCC1)CC2 (centres undefined) |
| 843 | CC(=O)Nc1nsc(N2CCCC(C(=O)N3CCN(c4cc(C)ccc4C)CC3)C2)n1 (centres undefined) |
| 1110 | Cc1ccc(-c2noc(Cn3c(=O)n(-c4ccccc4C)c(=O)c4sccc43)n2)cc1C |
| 1010 | CCn1c(=O)c(N2CCCC(C(=O)NCCc3c[nH]c4ccc(Cl)cc34)C2)nc2ccccc21 (centres undefined) |
| 881 | COc1ccc(-c2nnc(N3CCC(C(=O)NC4CCCCCC4)CC3)o2)cc1 |
| 713 | CC(C)(C)n1ncc2c(=O)n(NC(=O)c3cc(=O)c4ccccc4o3)cnc21 |
| 738 | CC(C)(C)c1ccc(C(=O)N2CCN=C2N2CCCC2)cc1 |
| 994 | O=C(Cc1ccccc1)N1CCCC1c1nc(-c2ccccc2Cl)no1 (centres undefined) |
| 560 | CCN1CCN(CCCNC(=O)Cn2c3ccccc3c3cnn(C)c(=O)c32)CC1 |
| 614 | CCN1CCCC1CNC(=O)Cn1c(=O)c2cccn2c2ccc(F)cc21 (centres undefined) |
| 600 | CCC1CN2C=NC(N3CCN(C(=O)Nc4ccc(OC)cc4)CC3)=CC2=N1 (centres undefined) |
| 582 | NC(=O)C1CCN(C2CC(=O)N(c3cccc(F)c3)C2=O)CC1 (centres undefined) |
| 579 | CCCn1cc(-c2ccncc2)cc1C(=O)NC1CC1 |
| 760 | Cc1ccc(Nc2nc(C)cc(N3CCN(S(=O)(=O)c4ccc5c(c4)OCCO5)CC3)n2)cc1 |
| 798 | COC(=O)c1ncn2c1C(=O)N(Cc1ccc(Cl)cc1)C(C)(C(=O)NC1CCCCC1)C2 (centres undefined) |
| 654 | Cc1ccccc1CC(=O)NC(C)C(=O)Nc1nc2ccccc2[nH]1 (centres undefined) |
| 809 | CCOc1ccc(CC(=O)N2CCN(c3cc(-c4cccs4)[nH]n3)CC2)cc1 |
| 623 | CCc1ccc(NC(=O)NCCn2c(-c3ccncc3)nc3cccnc32)cc1 |
| 887 | Cc1cc(-c2nnc(C3CCC3)o2)c(C)n1CC(=O)Nc1ccccc1F |
| 720 | COC(=O)c1ccc(NS(=O)(=O)c2cc(-c3c(C)noc3NC(C)=O)ccc2OC)cc1 |
| 762 | CCNS(=O)(=O)c1ccc(-c2c(C)noc2C)cc1 |
| 864 | COc1ccc(NC(=O)Cn2cc(C(=O)C3CC3)c3ccccc32)cc1 |

| RP-LC retention time [s] | Compound |
| --- | --- |
| 1180 | CCCN1C(=O)COc2cc(-c3noc(C(=O)NCCC4=CCCCC4)n3)ccc21 |
| 718 | CC(C)(C)C(=O)N1CCC(C(=O)Nc2nc3ccc(S(C)(=O)=O)cc3s2)CC1 |
| 854 | CCC(C)NC(=O)Cn1c(=O)c2cnc(-c3ccccc3)nc2n(C)c1=O (centres undefined) |
| 756 | Cc1noc([C@@H]2CC(F)(F)CN2C(=O)c2ccoc2C)n1 |
| 1020 | Cc1coc(C)c1C(=O)Nc1ncc(Cc2ccc(Cl)cc2)s1 |
| 561 | Cc1cccc(N2CCN(c3cc(C)nc4c5c(C)cc(C)nc5nn34)CC2)n1 |
| 624 | COc1ccc(CC(=O)Nc2cccc(-c3ccc4nnc(-c5ccncc5)n4n3)c2)cc1 |
| 1050 | Cc1ccccc1-c1nc(-c2ccc3c(c2)nnn3C)no1 |
| 731 | Cc1noc(C)c1CNC(=O)c1ccc(F)cc1Cl |
| 990 | CC(C)CNC(=O)CCc1nc2ccccc2n(CC(=O)N2CCCc3ccccc32)c1=O |
| 828 | C[C@@H](NCCCc1cccc(C(F)(F)F)c1)c1cccc2ccccc12 |
| 1070 | COc1ccccc1-c1nc(COC(=O)C2=CN(Cc3ccccc3)S(=O)(=O)N=C2C)no1 |
| 555 | COCCC(=O)N1CCC(N2C(=O)C(OC)C23CCOCC3)CC1 (centres undefined) |
| 1020 | COc1ccccc1N1CCN(c2cc(SCC(=O)Nc3cccc(SC)c3)ncn2)CC1 |
| 550 | CN1CC(=O)NC(c2ccccc2Br)C1=O (centres undefined) |
| 875 | C=C(C)[C@@H]1CC=C(C(=O)O)CC1 |
| 870 | COc1ccc(Cl)cc1NC(=O)NC1CCCCC1N1C(=O)CSC1=O (centres undefined) |
| 924 | CC(C)N1C(=O)C(C)N(C(=O)NC2CCCC2)c2cccnc21 (centres undefined) |
| 595 | Cc1nn(CC(=O)NCCN(C)Cc2ccccc2)c(=O)c2noc(C)c12 |
| 628 | O=C1NC(C(=O)NC2CCCC2)Cn2cccc21 (centres undefined) |
